Patent US20110053897A1 (IRM LLC, priority 2009, published 2011)
Like-named read-outs stand apart in the source and are kept apart here.

Target: T1, Syk kinase (Homo sapiens, UniProt P43405)
T1 construct: purchased
Experiment: Syk kinase inhibition, Caliper LabChip off-chip mobility-shift kinase assay
Assay type: biochemical
Conditions: read-out: Syk Enzyme IC50
In short: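 Purified Syk pre-incubated 15 min with compound in 100 mM HEPES pH 7.5, 1 mM DTT, 10 mM MgCl2 or MnCl2, 0.002% Brij-35, then 1.5 μM fluorescein peptide and ATP at apparent KM added; 1–1.5 h at room temperature, 4% DMSO, EDTA stop. Microfluidic mobility-shift product/substrate conversion gave % inhibition; IC50 from 12-point series (10–0.00003 μM) by 4-parameter fit.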

| SMILES | IC50 [nM] | IC50 (Caliper LabChip assay) [nM] |
| --- | --- | --- |
| Cc1cc(-c2cc3cc[nH]c(=O)c3c(Nc3ccc([C@H]4CC[C@H](N5CCOCC5)CC4)cc3)n2)cnc1N [compound 100] | 193 | – |
| Cc1ccnc(Nc2cc3ccn(C)c(=O)c3c(NC(C)(C)CO)n2)c1 [compound 486] | 45 | – |
| CC(C)Nc1nc(Nc2ccc(C(N)=O)cn2)cc2cc[nH]c(=O)c12 [compound 540] | 206 | – |
| CCn1ccc2cc(Nc3cnccn3)nc(NC(C)(C)C)c2c1=O [compound 465] | 147 | – |
| CC(C)(C)Nc1nc(Nc2cc(CNCCO)ccn2)cc2ccn(CCO)c(=O)c12 [compound 608] | – | < 5.65 |
| Cc1ccnc(Nc2cc3ccn(C(C)C)c(=O)c3c(NC(C)(C)CO)n2)c1 [compound 819] | – | 62 |
| [2H]C([2H])([2H])n1ccc2cc(Nc3cnccn3)nc(N[C@H]3CC[C@@H](O)CC3)c2c1=O [compound 377] | 34 | – |
| O=c1[nH]ccc2cc(C3=CCSCC3)nc(Nc3ccc(N4CCOCC4)cc3)c12 [compound 14] | 809 | – |
| CCN1CCC[C@@H]1CNC(=O)c1ccc(Nc2nc(-c3cncc(OC)n3)cc3cc[nH]c(=O)c23)cc1 [compound 83] | 14 | – |
| COc1cncc(-c2cc3cc[nH]c(=O)c3c(Nc3ccc(C4CCN(CC(O)CO)CC4)c(C)c3)n2)n1 (centres unmarked) [compound 166] | 3 | – |
| CC1(O)CN(Cc2cc(Nc3cc4ccn(CCO)c(=O)c4c(NC(C)(C)C)n3)ncc2F)C1 [compound 610] | – | 370 |
| COC/C=C/c1cc(Nc2cc3ccn(CCO)c(=O)c3c(NC(C)(C)C)n2)ncn1 [compound 621] | – | 94 |
| CS(=O)(=O)CCn1ccc2cc(Nc3cnccn3)nc(N[C@H]3CC[C@H](O)CC3)c2c1=O [compound 982] | – | 22 |
| Cc1ccnc(Nc2cc3cc[nH]c(=O)c3c(NCC(C)C)n2)c1 [compound 282] | 500 | – |
| CCNC(=O)Cn1ccc2cc(Nc3cc(C)ccn3)nc(NC(C)C)c2c1=O [compound 316] | 270 | – |
| CC(C)Nc1nc(Nc2cc(C(=O)O)ccn2)cc2cc[nH]c(=O)c12 [compound 587] | 226 | – |
| Nc1ncc(-c2cc3cc[nH]c(=O)c3c(NC3CCOC3)n2)cn1 (centres unmarked) [compound 185] | 145 | – |
| CNC(=O)c1ccc(Nc2nc(Nc3cc(C)ccn3)cc3ccn(C)c(=O)c23)cc1 [compound 342] | 222 | – |
| COCCNCc1ccnc(Nc2cc3ccn(CCO)c(=O)c3c(NC(C)(C)C)n2)c1 [compound 694] | – | 237 |
| O=c1[nH]ccc2cc(-c3cncnc3)nc(Nc3ccc([C@H]4CC[C@H](N5CCOCC5)CC4)cc3)c12 [compound 111] | 190 | – |
| CC(C)(C)Nc1nc(-c2cnc(N)nc2)cc2ccn(CC(=O)N3CCOCC3)c(=O)c12 [compound 678] | – | 78 |
| CC(=O)N1CCC(c2ccc(Nc3nc(Nc4cc(C)ccn4)cc4ccn(C)c(=O)c34)cc2)CC1 [compound 310] | 763 | – |
| CC(C)(C)Nc1nc(Nc2cc(CN3CC(O)C3)ccn2)cc2ccn(CCO)c(=O)c12 [Compound No. 600, 8-(tert-butylamino)-6-(4-((3-hydroxyazetidin-1-yl)methyl)pyridin-2-ylamino)-2-(2-hydroxyethyl)-2,7-naphthyridin-1(2H)-one] | – | 18.6 |
| Cc1ccc(-c2cc3cc[nH]c(=O)c3c(Nc3ccc(CCN4CCNC(=O)C4)cc3)n2)cn1 [compound 152] | 117 | – |
| Cn1ccc2cc(Nc3nccc(O)n3)nc(N[C@H]3CC[C@H](O)CC3)c2c1=O [compound 799] | – | 29 |
| CC(C)(C)Nc1nc(Nc2cc(C(C)(C)O)ccn2)cc2ccn(CC(N)=O)c(=O)c12 [compound 726] | – | 108 |
| COCCN1CCN(c2n[nH]c3cc(Nc4nc(-c5ccc(C)nc5)cc5cc[nH]c(=O)c45)ccc23)CC1 [compound 215] | 67 | – |

| SMILES | IC50 [nM] | IC50 (Caliper LabChip assay) [nM] |
| --- | --- | --- |
| CC(C)(Nc1nc(Nc2cnccn2)cc2ccn(CCO)c(=O)c12)C1CC1 [compound 670] | – | 89 |
| CCN1CCN(CCc2ccc(Nc3nc(-c4cncc(OC)n4)cc4cc[nH]c(=O)c34)cc2)CC1C (centres unmarked) [compound 33] | 34 | – |
| CC(C)Nc1nc(-c2cnc(N)nc2)cc2cc[nH]c(=O)c12 [compound 35] | 86 | – |
| CCCNC(=O)c1ccc(Nc2nc(Nc3cc(C)ccn3)cc3ccn(C)c(=O)c23)cc1 [compound 363] | 551 | – |
| Nc1ncc(-c2cc3cc[nH]c(=O)c3c(N[C@@H]3CCC[C@@H]3O)n2)cn1 [compound 182] | 30 | – |
| [2H]C([2H])([2H])n1ccc2cc(Nc3cc(Cl)ccn3)nc(N[C@@H](C)CO)c2c1=O [compound 403] | 60.4 | – |
| CCNC(=O)c1ccc(Nc2nc(Nc3cnccn3)cc3ccn(C)c(=O)c23)cc1 [compound 381] | 604 | – |
| CCN1CCN(Cc2n[nH]c3cc(Nc4nc(-c5cncc(C(=O)N6CCOCC6)c5)cc5cc[nH]c(=O)c45)ccc23)CC1 [compound 207] | 89 | – |
| CCn1ccc2cc(Nc3cc(C)ccn3)nc(NC(C)C)c2c1=O [compound 191] | 187 | – |
| Cc1cc(Nc2nc(-c3cncc(C(=O)N4CCOCC4)c3)cc3cc[nH]c(=O)c23)ccc1C1CCN(C2CC2)CC1 [compound 208] | 112 | – |
| Cc1cn(CCO)c(=O)c2c(NC(C)(C)C)nc(-c3cnc(N)nc3)cc12 [compound 671] | – | 13 |
| CCn1ccc2cc(Nc3cc(C)ccn3)nc(N[C@@H]3CC[C@H](CO)C3)c2c1=O [compound 794] | – | 94 |
| CC(C)(C)Nc1nc(Nc2cc(C(C)(C)N)ccn2)cc2ccn(CCO)c(=O)c12 [compound 711, 6-(4-(2-aminopropan-2-yl)pyridin-2-ylamino)-8-(tert-butylamino)-2-(2-hydroxyethyl)-2,7-naphthyridin-1(2H)-one] | – | 197 |
| Cc1ccnc(Nc2cc3ccn(CCO)c(=O)c3c(NC3CC3)n2)c1 [compound 817] | – | 108 |
| Nc1ncc(-c2cc3ccn(C[C@H](O)CO)c(=O)c3c(NC3CCC3)n2)cn1 [compound 774] | – | 34 |
| CC(C)Nc1nc(-c2cnc(N)nc2)cc2ccn(CCO)c(=O)c12 [compound 892] | – | 136 |
| CCNc1nc(Nc2cc(C)ccn2)cc2cc[nH]c(=O)c12 [compound 566] | 803 | – |
| COCCNC(=O)c1ccnc(Nc2cc3ccn(CCO)c(=O)c3c(NC(C)(C)C)n2)c1 [compound 682] | – | 329 |
| O=c1[nH]ccc2cc(Nc3cnccn3)nc(Nc3ccc(N4CCOCC4)cc3)c12 [compound 461] | 100 | – |
| CC(C)(C)Nc1nc(Nc2cc(-n3cc(C(=O)O)cn3)ncn2)cc2ccn(CCO)c(=O)c12 [compound 888] | – | 24 |
| Cc1ccnc(Nc2cc3cc[nH]c(=O)c3c(N[C@@H](C)CO)n2)c1 [compound 294] | 101 | – |
| CC(N)c1ccnc(Nc2cc3ccn(CCO)c(=O)c3c(NC(C)(C)C)n2)c1 (centres unmarked) [compound 712, 6-(4-(1-aminoethyl)pyridin-2-ylamino)-8-(tert-butylamino)-2-(2-hydroxyethyl)-2,7-naphthyridin-1(2H)-one] | – | 53 |
| O=c1c2c(N[C@H]3CC[C@@H](O)CC3)nc(Nc3cnccn3)cc2ccn1CCO [compound 376] | 6 | – |
| CCn1ccc2cc(Nc3cnccn3)nc(N[C@H](C)CO)c2c1=O [compound 963] | – | 147 |
| COc1ncc(-c2cc3cc[nH]c(=O)c3c(Nc3ccc(C4CN(C)C4)cc3)n2)cn1 [compound 139] | 34 | – |
| CCN1CCN(CCc2ccc(Nc3nc(Nc4ccc(F)cn4)cc4cc[nH]c(=O)c34)cc2)CC1 [compound 580] | 163 | – |
